From patent publication US8153625B2, “Nitrogen-containing heterocyclic compounds and medicinal use thereof” (Ono Pharmaceutical Co., Ltd., priority 2002, dated 2012)

What was measured:
[1] = biological target: T1, CXCR4 (Homo sapiens, UniProt P61073); assay: Inhibition of binding of human 125I-SDF-1 to CEM cells; details: 125I-SDF-1 binding to human T cell line CEM
T1 construct: a human T cell line known to express CXCR4 can be employed; endogenous in cells; host or cells: CEM (human T cell line), whole cells
From the text: Typically, as an assay for screening for a compound which inhibits the binding between SDF-1 and CXCR4, a system measuring the binding between an I-labeled SDF-1 and a human T cell line known to express CXCR4 can be employed. Since both of a macrophage (R5) HIV and RANTES, MIP- 1 a, MIP-1I3 bind to CCR5, a similar understanding is possible.
Inhibition of Human SDF-1 with CEM Cell
In a binding buffer solution (HEPES containing BSA), a human T cell line CEM cell was mixed with a test compound and ^125I-SDF-1 (NEN) and incubated for 60 minutes at […]. The reacted CEM cell was filtered rapidly through a GF/B membrane filter plate (Packard) to effect adsorption, followed by washing three times with PBS, drying and addition of Microscint+20 (Packard).

T1 sequence (P61073 whole entry): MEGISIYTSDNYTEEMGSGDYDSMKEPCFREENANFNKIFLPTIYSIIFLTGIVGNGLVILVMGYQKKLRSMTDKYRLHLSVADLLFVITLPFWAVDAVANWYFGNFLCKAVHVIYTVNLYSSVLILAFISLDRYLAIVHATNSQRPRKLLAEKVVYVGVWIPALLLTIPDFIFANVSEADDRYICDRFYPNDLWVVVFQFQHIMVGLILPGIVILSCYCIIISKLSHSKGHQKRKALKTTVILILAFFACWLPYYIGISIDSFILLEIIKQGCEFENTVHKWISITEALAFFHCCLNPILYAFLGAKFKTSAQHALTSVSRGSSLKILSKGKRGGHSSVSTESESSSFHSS

| Structure (SMILES) | IC50 [1] [nM] | melting point [°C] |
| --- | --- | --- |
| Cl.Cl.NCCNc1nccc(N2CCCCCC2)n1 [Example 1(41), 2-(2-aminoethylamino)-4-(perhydroazepin-1-yl)pyrimidine dihydrochloride] | 200 | 100 to 102 |
| c1ccc(CN2CCC(Nc3nccc(N4CCCCCC4)n3)C2)cc1 (stereo not drawn) [Example 4, 2-(1-benzylpyrrolidin-3-ylamino)-4-(perhydroazepin-1-yl)pyrimidine] | 150 |  |
